Source: PMC8050276, “Estradiol analogs attenuate autophagy, cell migration and invasion by direct and selective inhibition of TRPML1, independent of estrogen receptors” (Scientific Reports, 2021)
Like-named read-outs stand apart in the source and are kept apart here.

Experiments:
[1] = molecular target: T1, hTRPML3-YFP (Homo sapiens, UniProt Q8TDD5); assay: Fluo-4 Ca2+ influx assay, HEK293 stably expressing hTRPML3-YFP, activated with ML-SA1; assay type: cell-based
T1 construct: expressed in transfected cells
T1 sequence (Q8TDD5 whole entry): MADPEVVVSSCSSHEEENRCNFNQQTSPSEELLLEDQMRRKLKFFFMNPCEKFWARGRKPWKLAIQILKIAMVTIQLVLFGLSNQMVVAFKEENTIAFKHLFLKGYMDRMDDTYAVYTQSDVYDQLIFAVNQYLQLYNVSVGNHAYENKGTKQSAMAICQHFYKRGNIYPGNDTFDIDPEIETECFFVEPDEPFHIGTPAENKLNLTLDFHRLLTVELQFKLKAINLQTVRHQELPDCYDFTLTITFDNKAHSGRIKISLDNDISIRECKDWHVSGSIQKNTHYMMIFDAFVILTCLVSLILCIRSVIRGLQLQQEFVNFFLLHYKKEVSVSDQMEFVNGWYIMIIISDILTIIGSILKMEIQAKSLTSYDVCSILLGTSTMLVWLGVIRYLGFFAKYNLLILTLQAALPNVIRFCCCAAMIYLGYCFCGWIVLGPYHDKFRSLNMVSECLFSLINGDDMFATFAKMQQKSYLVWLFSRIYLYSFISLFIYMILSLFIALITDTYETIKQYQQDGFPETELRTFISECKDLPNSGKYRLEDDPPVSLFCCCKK
Method: To identify inhibitors of TRPML1 and TRPML3, the Spectrum Collection compound library (MS Discoveries; 2000 compounds) and additional 430 bioactive compounds were screened. To this end, fluorometric Ca^2+ influx assays were performed by using the calcium dye Fluo-4/AM (Invitrogen, Thermo Fisher Scientific, Waltham, MA, USA) and a custom-made fluorescence imaging plate reader built into a robotic liquid handling station (Freedom Evo 150, Tecan, Männedorf, Switzerland). All measurements were done in a HEPES buffered solution (HBS), containing 132 mM NaCl, 6 mM KCl, 1 mM MgCl2, 1 mM CaCl2, 5.5 mM D-glucose, 10 mM HEPES, pH 7.4. Screening compounds dissolved in DMSO (10 mM) were prediluted in 150 mM NaCl, 20 mM HEPES, pH 7.4, to a concentration of 200 µM. For primary screens, HEK293 stably expressing plasma membrane-targeted TRPML1 or TRPML3 were trypsinized and resuspended in cell culture medium supplemented with 4 µM Fluo-4/AM. After incubation at 37 °C for 30 min, the cell suspension was briefly centrifuged resuspended in HBS, and dispensed into black pigmented, clear-bottom 384-well microwell plates (Greiner μClear, Frickenhausen, Germany). Plates were placed into the FLIPR and fluorescence signals (excitation 470 nm, emission 515 nm) were recorded with a Zyla 5.5 camera (Andor, Belfast, UK) and the μManager software like previously described. In a first video, compound libraries were successively added to the cells with the Tecan 96-tip multichannel arm to a final concentration of 20 µM to map unspecific effects like autofluorescence or toxicity. In a second step the agonist ML-SA1 was pipetted in each well and fluorescence signals were recorded for 10 min. Analyses were done by calculating fluorescence intensities for each well and background areas with ImageJ (National Institutes of Health, Bethesda, MD, USA). Finally, the background was subtracted and the fluorescence intensities were normalized to initial intensities (F/F0). Concentration response curves were generated by the same procedure but compounds were manually prediluted in 96-well plates containing HBS, now supplemented with 0.1% bovine serum albumin. Here data was fitted to a four-parameter Hill equation to obtain Imin, Imax, IC50), and the Hill coefficient n.

[2] = molecular target: T2, hTPC2L11A/L12A-RFP (Homo sapiens, UniProt Q8NHX9, L11A/L12A); assay: Single cell Fura-2 calcium imaging, HEK293 stably expressing hTPC2L11A/L12A-RFP; assay type: cell-based; details: compound alone or 10 µM after TPC2-A1-N (10 µM)
T2 construct: expressed in transfected cells
T2 sequence (Q8NHX9 whole entry L11A/L12A): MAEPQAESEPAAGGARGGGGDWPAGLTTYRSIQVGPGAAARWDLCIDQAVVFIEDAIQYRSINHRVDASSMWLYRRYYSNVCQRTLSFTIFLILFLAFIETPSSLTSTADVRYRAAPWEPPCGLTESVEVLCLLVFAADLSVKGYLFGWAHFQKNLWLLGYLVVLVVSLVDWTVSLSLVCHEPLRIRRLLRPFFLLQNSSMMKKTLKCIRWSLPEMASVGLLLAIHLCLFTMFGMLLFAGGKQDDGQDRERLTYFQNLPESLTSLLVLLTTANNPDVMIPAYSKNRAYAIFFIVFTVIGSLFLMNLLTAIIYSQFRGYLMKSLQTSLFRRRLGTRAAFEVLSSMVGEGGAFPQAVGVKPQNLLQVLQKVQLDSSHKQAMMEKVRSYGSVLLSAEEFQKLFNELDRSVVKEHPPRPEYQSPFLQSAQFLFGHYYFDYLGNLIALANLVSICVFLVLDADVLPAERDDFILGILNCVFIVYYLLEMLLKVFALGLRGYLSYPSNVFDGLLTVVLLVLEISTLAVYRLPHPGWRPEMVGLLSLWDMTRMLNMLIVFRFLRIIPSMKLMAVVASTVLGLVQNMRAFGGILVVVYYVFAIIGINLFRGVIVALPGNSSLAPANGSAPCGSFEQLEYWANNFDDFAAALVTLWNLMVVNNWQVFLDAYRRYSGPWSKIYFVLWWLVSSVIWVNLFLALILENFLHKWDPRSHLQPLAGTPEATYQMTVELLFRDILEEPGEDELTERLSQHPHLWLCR
Method: Single cell Ca^2+ imaging experiments were performed using Fura-2 as previously described. HEK293 cells stably expressing hTRPML1∆NC-YFP, hTRPML2-YFP, hTPPML3-YFP or hTPC2L11A/L12A-RFP (22, 24) were cultured at 37 °C with 5% of CO2 in Dulbecco’s modified Eagle medium (Thermo Fisher), supplemented with 10% fetal bovine serum, 100 U/mL penicillin, and 0.1 mg/mL streptomycin. Cells were plated onto poly-L-lysine (sigma)-coated glass coverslips and grown for 2–3 days. For Ca^2+ imaging experiments cells were loaded for 1 h at room temperature with Fura-2 AM (4.0 µM) and 0.005% (v/v) pluronic acid (both from Thermo Fisher) in HEPES-buffered solution (HBS) comprising 138 mM NaCl, 6 mM KCl, 2 mM MgCl2, 2 mM CaCl2, 10 mM HEPES, and 5.5 mM D-glucose (adjusted to pH 7.4 with NaOH). After loading, cells were washed with HBS and mounted in an imaging chamber. All recordings were performed in HBS. Ca^2+ imaging was performed using a Leica DMi8 live cell microscope. Fura-2 was excited at 340 nm/380 nm. Emitted fluorescence was captured using 515 nm long-pass filter. Compounds were pre diluted in DMSO and stored as 10 mM stock solutions at − 20 °C, not exceeding three months. Working solutions were prepared directly before using by dilution with HBS.

[3] = molecular target: T3, hTRPML2 (Homo sapiens, UniProt Q8IZK6); assay: Whole-cell patch-clamp, tetracycline-inducible HEK293 hTRPML2; assay type: cell-based; details: 30 µM ML-SA1, pH 7.4; read-out: TRPML2 IC50, whole-cell patch-clamp
T3 construct: host or cells: HEK293, FLP-in-Tet-On, tetracycline-induced
T3 sequence (Q8IZK6 1-566): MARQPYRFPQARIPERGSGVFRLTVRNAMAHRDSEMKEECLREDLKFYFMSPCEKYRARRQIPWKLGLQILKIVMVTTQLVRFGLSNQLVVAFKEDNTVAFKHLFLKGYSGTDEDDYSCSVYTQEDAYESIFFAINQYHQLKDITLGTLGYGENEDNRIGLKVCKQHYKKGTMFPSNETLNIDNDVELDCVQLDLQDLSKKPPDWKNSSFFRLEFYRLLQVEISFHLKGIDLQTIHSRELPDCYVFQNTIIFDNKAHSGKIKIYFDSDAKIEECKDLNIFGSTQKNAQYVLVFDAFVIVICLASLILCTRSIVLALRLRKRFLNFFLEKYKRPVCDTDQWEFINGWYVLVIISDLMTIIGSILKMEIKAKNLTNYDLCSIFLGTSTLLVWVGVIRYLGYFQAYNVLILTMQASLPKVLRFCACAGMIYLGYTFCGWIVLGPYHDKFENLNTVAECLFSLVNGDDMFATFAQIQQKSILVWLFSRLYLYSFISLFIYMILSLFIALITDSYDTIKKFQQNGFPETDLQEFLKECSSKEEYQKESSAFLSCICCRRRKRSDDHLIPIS
Method: Experiments were performed as described previously[20],[42]. In brief, cells were cultured on coverslips (Fisherbrand, Fisher Scientific) in complete DMEM medium with 10% FBS (Thermo Fisher). HEK293 cells expressing the desired channel protein were patch-clamped after overnight induction with tetracycline (1 µg/mL). […] The low pH bath solution contained (mM) 150 Na-Gluconate, 5 KCl, 2 CaCl2, 1 MgCl2, 10 glucose, 10 HEPES and 10 MES (pH 4.6). Whole‐cell currents were recorded using a Multiclamp 700B amplifier (Molecular Devices) with low‐pass filtering at 3 kHz. […] Current recording was done with WinWCP5.2.7 (University of Strathclyde, UK) software, and analysis was done with the help of a customized Igor pro program (WaveMetrics).

[4] = test system: MDA-MB-231 cells; assay: Invasion assay, Matrigel-coated transwell chambers; assay type: cell-based, human; details: various concentrations, 4 h and o/n
Method: For invasion measurements transwell chambers in 24-well permeable support plates (Corning, #3421) were coated with Corning Matrigel basement membrane matrix (Corning, #354234) for 1.5 h. A total of 4 × 104 MDA-MB-231 WT and TRPML1 KO cells were seeded on top of the chambers in serum-free medium, and direct stimulation with EDME was performed. The lower compartment contained the chemotactic gradient, medium with 10% FBS. Cells were allowed to migrate for 4 h and o/n, and were then fixed and stained with crystal violet containing methanol. Non-invaded cells were removed with Q-tips and pictures were taken of the bottom side of the membrane using an inverted microscope (Olympus CKX41) and an Olympus SC50 camera (Olympus). The number of invaded cells was quantified using ImageJ 1.52a software.

[5] = Fluo-4, 5 µM ML-SA1, Table S1, read-out: TRPML3 IC50

Structure (SMILES): CC(=O)c1ccc2c(c1)CC[C@@H]1[C@@H]2CC[C@]2(C)[C@@H](O)CC[C@@H]12 [PRU-12]
- IC50 [1, 5]: 14.1 µM
- effect on hTPC2, Fura-2 [2]: Neither an activating nor a blocking effect

Structure (SMILES): COc1ccc2c(c1)CC[C@@H]1[C@@H]2CC[C@]2(C)[C@@H](O)CC[C@@H]12 [EDME, 17β-estradiol methyl ether]
- IC50 [1]: 19.5 µM
- IC50 [3]: 3.8 µM
- invasion of MDA-MB-231 cells [4]: significantly reduced

Structure (SMILES): C=Cc1ccc2c(c1)CC[C@@H]1[C@@H]2CC[C@]2(C)[C@@H](O)CC[C@@H]12 [PRU-10]
- IC50 [1, 5]: 15.8 µM
- effect on hTPC2, Fura-2 [2]: Neither an activating nor a blocking effect
